Assay results: article PMC9122897, “SHR1032, a novel STING agonist, stimulates anti-tumor immunity and directly induces AML apoptosis” (Scientific Reports, 2022)

Legend:
[1] = target: T1, human STING (Homo sapiens, UniProt Q86WV6); experiment: Thermal shift assay; type: binding; settings: human STING protein 5 uM; ligand bound vs apo
T1 construct: made in house; host or cells: E. coli
Source text: We sought to develop small molecule compounds with increased STING agonist activity against human STING. GSK reported a series of non-CDN small molecules, represented by compound 1[13], with good human STING agonistic activity. Based on our molecular modeling analysis, along with the reported CDN-STING crystal structures, we designed a novel series of fused tricyclic heterocycle compounds and analyzed their binding to human STING with thermal shift assays and the potency in activation of STING signaling with a reporter cellular assay (Supplementary Table S1). Thermal shift assays measure the difference between apo STING and ligand bound STING in the inflection point at which 50% of protein is thermally unfolded (ΔTm). […] The ability of compounds to activate the IRF reporter gene in the THP1 cells was also evaluated.
The melting temperature (Tm) of human STING was determined by calculating the temperature at the inflection point of the thermal melt curve generated on a Roche LightCycler 480 using 384 plate format and 465–590 nm filter set. […] Florescence was measured while ramping the plate temperature from 20 to 95 °C and the resulting data was processed using ROCHE data analysis software. Delta Tms were calculated by subtracting the Tm of untreated protein from ligand treated samples. […]

[2] = test system: human PBMCs; experiment: IFNβ ELISA; type: cell-based; settings: 5 h, vs ADU-S100
Procedure: (§1) Figure 2 SHR1032 specifically and potently activates STING signaling pathway. IRF luciferase reporter assays in (a) THP1-STING-R232, THP1-STING-H232, THP1-STING-HAQ, and THP1-STING-KO cells. Cells were stimulated for 24 h with the indicated STING compounds and assessed for luciferase activity. IFNβ production and activation of cGAS-STING signaling pathway in (b) human THP1-STING-R232, human PBMCs from a donor homozygous for the R232 variant, cynomolgus PBMC, and mouse RAW164.7 macrophage cells were treated with STING agonists for 5 h. IFNβ in media was quantified by human or mouse ELISA kits respectively. (c) THP1-STING-R232 cells and mouse RAW164.7 macrophage cells were stimulated with 40 µM of ADU-S100 or 10 µM of SHR1032 for the indicated time points. The amount of pTBK1, total TBK1, STING and α-tubulin was measured by western blotting.
(§2) Human and Cynomolgous PBMC’s were thawed and spun down in Lymphocyte media (ZENBIO) and resuspended in media to 1.5 x 10^6 cells/ml density. […] Human and monkey IFN-β protein concentration was measured using human IFN-β Quantikine ELISA Kits (R&D Systems) per manufacture’s protocol. Mouse IFN-β was measured using mouse IFN-β Quantikine ELISA Kits (R&D Systems) per manufacture’s protocol. Mouse TNFα, IFN-β and IL-6 in the tumor lysates and plasma was measured by Quantikine ELISA Kits (R&D Systems) per manufacture’s protocol.

[3] = test system: mouse RAW164.7 macrophage cells; experiment: IFNβ ELISA; type: cell-based; settings: 5 h, vs ADU-S100
Procedure: as §1, §2

[4] = test system: THP1-STING-R232 cells; experiment: Western blot of TBK1 phosphorylation; type: cell-based, human; settings: 10 µM SHR1032 vs 40 µM ADU-S100
Procedure: as §1
THP1 reporter cells were treated for 24 h with a total of 100 k cells and 150 ul media in each well a 96-well plate. […] Luminescence signal was measured using Tecan infinite M1000. EC50 values were calculated using non-linear regression analysis of GraphPad Prism. Cell growth was monitored by CellTiter-Glo Luminescent Cell Viability Assay (Promega) per manufacture’s protocol. GI50 values were calculated using non-linear regression analysis of GraphPad Prism. […]

T1 sequence (Q86WV6 155-341 limits assumed): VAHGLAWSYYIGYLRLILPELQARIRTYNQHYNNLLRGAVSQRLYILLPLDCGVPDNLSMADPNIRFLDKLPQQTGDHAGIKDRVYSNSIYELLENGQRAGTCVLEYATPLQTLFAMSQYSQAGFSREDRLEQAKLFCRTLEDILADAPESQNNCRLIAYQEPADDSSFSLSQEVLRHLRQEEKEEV

Thermal shift ∆Tm [1]: 10.7 °C
SMILES: CCn1nc(C)cc1C(=O)Nc1nc2cc(C(N)=O)cc(OC)c2n1CCC[C@H]1COc2cc(C(N)=O)cc3nc(NC(=O)c4cc(C)nn4CC)n1c23 [SHR1032]
human IFNβ production [2]: much greater amount of human IFNβ than ADU-S100
mouse IFNβ production [3]: lower than that with that of ADU-S100, but still detectable
TBK1 phosphorylation [4]: higher level of TBK1 phosphorylation than ADU-S100
